Measured values: ChEMBL document CHEMBL3991601, “The target landscape of clinical kinase drugs” (Science, 2017)
The source made the active and inactive calls. For most assays here, no stated cut-off is given here; in the data, actives have a measured Kd and inactives only a lower limit.

How the values were obtained:
[1] = biological target: RAC-alpha serine/threonine-protein kinase (Homo sapiens, UniProt P31749)
[2] = biological target: T1, Bone morphogenetic protein receptor type-2 (Homo sapiens, UniProt Q13873)
T1 sequence (Q13873 whole entry): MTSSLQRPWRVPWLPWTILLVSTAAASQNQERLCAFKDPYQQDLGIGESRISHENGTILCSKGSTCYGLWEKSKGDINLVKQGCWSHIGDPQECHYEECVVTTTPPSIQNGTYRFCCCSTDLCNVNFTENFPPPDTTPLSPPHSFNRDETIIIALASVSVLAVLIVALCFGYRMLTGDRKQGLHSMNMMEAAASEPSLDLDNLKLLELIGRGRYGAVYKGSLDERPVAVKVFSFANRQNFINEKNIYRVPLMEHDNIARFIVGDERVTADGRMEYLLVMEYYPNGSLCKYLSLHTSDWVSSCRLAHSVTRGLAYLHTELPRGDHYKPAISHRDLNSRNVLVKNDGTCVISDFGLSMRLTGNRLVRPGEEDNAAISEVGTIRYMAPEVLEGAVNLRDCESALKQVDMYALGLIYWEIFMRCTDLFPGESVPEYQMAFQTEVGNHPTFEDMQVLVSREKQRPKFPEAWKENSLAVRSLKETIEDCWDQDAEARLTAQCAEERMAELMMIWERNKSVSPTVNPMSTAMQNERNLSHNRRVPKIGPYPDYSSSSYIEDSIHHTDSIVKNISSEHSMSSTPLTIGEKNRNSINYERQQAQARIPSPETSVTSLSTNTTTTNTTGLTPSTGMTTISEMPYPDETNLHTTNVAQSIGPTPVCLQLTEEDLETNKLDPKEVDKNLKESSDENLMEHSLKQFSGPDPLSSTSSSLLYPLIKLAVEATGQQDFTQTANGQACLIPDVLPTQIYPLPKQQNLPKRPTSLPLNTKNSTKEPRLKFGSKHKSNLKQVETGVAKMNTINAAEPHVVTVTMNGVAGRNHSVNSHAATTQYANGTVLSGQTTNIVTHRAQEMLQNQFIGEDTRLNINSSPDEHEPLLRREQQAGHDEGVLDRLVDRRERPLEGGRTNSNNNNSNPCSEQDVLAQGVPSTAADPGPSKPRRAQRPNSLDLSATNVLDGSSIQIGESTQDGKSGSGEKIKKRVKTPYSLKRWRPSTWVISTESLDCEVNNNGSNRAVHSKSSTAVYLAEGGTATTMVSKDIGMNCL

[3] = biological target: Cyclin-dependent kinase 12 (Homo sapiens, UniProt Q9NYV4)
[4] = biological target: Cyclin-dependent kinase 13 (Homo sapiens, UniProt Q14004)
[5] = biological target: Dual specificity protein kinase CLK1 (Homo sapiens, UniProt P49759)
[6] = biological target: Casein kinase II subunit alpha' (Homo sapiens, UniProt P19784)
[7] = biological target: Ephrin type-A receptor 5 (Homo sapiens, UniProt P54756)
[8] = biological target: GTP-binding protein 4 (Homo sapiens, UniProt Q9BZE4)
[9] = biological target: Mitogen-activated protein kinase 1 (Homo sapiens, UniProt P28482)
[10] = biological target: Mitogen-activated protein kinase 10 (Homo sapiens, UniProt P53779)
[11] = biological target: T2, MAP kinase-activated protein kinase 5 (Homo sapiens, UniProt Q8IW41)
T2 sequence (Q8IW41 whole entry): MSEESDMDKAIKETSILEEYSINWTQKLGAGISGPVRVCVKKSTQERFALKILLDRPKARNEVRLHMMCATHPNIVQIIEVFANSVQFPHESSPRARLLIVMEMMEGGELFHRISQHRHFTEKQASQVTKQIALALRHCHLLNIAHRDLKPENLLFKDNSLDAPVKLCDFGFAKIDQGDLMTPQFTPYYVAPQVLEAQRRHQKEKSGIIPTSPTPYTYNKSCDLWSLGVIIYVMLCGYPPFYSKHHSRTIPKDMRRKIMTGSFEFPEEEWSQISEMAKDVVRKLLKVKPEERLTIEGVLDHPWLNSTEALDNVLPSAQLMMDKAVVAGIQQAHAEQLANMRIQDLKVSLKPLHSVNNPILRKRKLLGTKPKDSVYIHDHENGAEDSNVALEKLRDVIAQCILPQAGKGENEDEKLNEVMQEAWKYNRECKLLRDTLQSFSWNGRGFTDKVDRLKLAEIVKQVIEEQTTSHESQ

[12] = biological target: GTP-binding nuclear protein Ran (Homo sapiens, UniProt P62826)
[13] = biological target: T3, Serine/threonine-protein kinase 4 (Homo sapiens, UniProt Q13043)
T3 sequence (Q13043 whole entry): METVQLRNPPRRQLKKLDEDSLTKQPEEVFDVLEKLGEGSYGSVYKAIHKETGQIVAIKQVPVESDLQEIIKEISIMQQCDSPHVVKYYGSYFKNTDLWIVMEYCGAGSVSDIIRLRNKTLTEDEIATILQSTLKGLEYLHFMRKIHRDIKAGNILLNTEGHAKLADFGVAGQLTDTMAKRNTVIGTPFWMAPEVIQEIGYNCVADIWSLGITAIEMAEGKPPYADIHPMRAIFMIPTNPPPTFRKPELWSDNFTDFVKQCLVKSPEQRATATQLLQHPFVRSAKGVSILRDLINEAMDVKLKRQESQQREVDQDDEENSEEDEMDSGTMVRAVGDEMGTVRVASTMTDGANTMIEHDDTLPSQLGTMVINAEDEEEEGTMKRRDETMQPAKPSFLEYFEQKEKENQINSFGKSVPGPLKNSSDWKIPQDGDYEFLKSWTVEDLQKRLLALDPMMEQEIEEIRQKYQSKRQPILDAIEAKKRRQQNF

[14] = biological target: TGF-beta receptor type-2 (Homo sapiens, UniProt P37173)
[15] = biological target: TRAF2 and NCK-interacting protein kinase (Homo sapiens, UniProt Q9UKE5)

Chain of RAC-alpha serine/threonine-protein kinase (P31749 whole entry): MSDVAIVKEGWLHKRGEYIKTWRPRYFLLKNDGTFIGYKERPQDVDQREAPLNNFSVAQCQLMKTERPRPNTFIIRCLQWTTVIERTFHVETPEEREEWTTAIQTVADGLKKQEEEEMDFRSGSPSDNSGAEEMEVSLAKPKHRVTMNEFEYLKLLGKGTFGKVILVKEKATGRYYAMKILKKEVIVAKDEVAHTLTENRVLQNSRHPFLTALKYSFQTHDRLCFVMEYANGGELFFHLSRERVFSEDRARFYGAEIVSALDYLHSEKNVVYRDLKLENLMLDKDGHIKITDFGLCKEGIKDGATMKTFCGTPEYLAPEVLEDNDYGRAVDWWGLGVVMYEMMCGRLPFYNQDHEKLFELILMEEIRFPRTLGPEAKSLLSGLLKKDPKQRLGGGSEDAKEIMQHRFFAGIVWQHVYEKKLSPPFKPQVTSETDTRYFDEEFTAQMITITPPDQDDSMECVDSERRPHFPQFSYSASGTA
Chain of Mitogen-activated protein kinase 1 (P28482 whole entry): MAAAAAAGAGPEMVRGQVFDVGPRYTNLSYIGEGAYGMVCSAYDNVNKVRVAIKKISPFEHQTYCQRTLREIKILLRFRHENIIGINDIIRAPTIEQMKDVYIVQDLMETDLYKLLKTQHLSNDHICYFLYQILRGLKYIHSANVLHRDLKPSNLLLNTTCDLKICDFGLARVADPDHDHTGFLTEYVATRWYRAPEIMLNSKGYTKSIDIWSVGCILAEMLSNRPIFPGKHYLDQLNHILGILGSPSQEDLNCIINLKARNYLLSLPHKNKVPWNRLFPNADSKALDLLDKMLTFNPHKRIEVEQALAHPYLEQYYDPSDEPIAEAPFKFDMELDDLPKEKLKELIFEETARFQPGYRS
Chain of Casein kinase II subunit alpha' (P19784 whole entry): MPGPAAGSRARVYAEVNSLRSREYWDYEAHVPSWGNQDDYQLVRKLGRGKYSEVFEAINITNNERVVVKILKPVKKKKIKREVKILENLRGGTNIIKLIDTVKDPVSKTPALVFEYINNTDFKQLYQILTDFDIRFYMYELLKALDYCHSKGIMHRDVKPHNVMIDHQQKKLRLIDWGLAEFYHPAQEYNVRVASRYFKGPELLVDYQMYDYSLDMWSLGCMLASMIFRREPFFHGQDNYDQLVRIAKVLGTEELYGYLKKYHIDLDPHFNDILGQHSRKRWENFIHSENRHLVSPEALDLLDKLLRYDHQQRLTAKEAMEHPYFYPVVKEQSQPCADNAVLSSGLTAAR
Chain of TGF-beta receptor type-2 (P37173 whole entry): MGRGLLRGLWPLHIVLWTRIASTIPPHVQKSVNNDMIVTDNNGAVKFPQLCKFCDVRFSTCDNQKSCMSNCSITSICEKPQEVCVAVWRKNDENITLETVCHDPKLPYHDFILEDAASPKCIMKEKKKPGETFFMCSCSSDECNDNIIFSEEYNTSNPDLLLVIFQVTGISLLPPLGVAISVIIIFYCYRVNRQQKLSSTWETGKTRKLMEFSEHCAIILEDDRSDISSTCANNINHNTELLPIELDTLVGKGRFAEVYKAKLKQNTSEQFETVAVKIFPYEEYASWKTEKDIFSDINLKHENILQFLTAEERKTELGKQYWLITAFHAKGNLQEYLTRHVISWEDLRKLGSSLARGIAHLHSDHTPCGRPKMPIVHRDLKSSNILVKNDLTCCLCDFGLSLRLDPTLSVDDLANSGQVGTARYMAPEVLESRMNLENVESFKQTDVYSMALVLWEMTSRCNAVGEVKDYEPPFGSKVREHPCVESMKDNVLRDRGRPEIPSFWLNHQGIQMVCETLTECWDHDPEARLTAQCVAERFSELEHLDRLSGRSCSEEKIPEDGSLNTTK
Chain of Dual specificity protein kinase CLK1 (P49759 whole entry): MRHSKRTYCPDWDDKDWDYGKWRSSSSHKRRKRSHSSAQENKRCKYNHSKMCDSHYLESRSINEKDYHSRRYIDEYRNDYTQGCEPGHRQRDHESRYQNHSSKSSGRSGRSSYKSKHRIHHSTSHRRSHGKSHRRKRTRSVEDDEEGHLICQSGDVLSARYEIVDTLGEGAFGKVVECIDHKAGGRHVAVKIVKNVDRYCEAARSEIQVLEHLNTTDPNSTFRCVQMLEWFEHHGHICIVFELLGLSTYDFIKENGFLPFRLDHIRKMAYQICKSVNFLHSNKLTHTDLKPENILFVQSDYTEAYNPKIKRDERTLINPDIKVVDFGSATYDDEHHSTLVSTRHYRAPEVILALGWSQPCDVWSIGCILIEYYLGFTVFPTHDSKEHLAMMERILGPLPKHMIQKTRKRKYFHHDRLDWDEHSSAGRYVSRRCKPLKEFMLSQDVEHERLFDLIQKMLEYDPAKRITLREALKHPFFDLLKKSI
Chain of Ephrin type-A receptor 5 (P54756 whole entry): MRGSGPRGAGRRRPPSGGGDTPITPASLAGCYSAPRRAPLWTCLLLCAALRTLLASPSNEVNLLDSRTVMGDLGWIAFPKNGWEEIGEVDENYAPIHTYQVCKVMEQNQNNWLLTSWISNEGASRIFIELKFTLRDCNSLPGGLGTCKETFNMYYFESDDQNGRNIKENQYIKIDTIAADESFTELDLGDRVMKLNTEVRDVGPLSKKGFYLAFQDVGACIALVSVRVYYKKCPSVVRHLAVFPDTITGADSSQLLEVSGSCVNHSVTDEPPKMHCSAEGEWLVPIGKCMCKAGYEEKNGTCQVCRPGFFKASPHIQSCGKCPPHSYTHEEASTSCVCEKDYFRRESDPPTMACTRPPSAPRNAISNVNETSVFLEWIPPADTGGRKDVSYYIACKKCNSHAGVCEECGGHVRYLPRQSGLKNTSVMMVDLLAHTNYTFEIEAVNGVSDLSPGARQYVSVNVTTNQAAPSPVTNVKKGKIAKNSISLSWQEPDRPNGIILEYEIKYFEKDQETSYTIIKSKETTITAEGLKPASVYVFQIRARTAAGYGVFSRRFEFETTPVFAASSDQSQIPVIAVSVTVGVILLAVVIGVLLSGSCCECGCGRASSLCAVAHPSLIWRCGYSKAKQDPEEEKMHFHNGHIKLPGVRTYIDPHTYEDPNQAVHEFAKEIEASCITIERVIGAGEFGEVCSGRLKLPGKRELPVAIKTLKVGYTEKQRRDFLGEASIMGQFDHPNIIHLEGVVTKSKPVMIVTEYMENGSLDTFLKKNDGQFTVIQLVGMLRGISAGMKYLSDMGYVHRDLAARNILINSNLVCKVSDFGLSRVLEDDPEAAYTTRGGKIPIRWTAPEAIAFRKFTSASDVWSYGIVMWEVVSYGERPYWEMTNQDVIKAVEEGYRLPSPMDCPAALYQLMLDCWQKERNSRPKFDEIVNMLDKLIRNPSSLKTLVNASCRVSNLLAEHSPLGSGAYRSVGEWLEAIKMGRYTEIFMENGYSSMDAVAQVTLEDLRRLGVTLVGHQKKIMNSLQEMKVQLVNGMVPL
Chain of Cyclin-dependent kinase 13 (Q14004 whole entry): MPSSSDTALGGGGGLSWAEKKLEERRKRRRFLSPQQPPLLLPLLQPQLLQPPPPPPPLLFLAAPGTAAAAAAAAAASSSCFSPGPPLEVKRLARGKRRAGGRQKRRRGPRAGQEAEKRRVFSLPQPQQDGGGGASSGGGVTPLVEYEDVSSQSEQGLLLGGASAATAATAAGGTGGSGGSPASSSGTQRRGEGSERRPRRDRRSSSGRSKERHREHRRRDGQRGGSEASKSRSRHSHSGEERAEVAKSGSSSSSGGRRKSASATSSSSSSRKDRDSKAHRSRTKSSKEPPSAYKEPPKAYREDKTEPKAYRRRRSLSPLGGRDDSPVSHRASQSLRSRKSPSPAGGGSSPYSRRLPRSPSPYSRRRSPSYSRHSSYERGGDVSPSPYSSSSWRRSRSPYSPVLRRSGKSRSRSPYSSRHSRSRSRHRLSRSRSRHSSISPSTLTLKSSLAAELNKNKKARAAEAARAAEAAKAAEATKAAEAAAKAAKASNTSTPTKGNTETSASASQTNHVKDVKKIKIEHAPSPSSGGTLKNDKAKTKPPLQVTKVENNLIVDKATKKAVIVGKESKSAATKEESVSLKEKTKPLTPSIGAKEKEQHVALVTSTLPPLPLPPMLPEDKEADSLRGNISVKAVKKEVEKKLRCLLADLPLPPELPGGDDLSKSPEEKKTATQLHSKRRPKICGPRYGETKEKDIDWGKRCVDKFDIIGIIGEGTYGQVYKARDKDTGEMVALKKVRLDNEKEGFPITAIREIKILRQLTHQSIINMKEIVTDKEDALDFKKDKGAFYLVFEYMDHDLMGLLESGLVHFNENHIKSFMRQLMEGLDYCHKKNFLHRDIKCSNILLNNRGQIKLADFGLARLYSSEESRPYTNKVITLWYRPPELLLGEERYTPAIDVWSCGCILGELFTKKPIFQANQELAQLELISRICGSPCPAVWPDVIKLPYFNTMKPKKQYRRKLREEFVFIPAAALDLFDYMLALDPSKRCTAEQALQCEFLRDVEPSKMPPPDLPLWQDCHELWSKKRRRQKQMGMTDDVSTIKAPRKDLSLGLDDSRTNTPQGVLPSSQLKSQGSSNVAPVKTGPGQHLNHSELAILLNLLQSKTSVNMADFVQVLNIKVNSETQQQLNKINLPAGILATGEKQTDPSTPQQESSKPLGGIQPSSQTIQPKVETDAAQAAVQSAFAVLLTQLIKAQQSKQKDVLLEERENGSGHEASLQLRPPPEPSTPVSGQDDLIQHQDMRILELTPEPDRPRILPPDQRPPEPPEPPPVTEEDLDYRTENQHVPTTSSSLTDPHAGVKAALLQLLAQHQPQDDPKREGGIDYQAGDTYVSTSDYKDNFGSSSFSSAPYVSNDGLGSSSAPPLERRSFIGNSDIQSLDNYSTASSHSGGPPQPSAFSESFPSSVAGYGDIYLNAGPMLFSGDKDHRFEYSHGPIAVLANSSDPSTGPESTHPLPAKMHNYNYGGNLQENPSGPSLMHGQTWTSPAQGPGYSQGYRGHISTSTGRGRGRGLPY

| SMILES | Kd [1] | Kd [2] | Kd [3] | Kd [4] | Kd [5] | Kd [6] | Kd [7] | Kd [8] | Kd [9] | Kd [10] | Kd [11] | Kd [12] | Kd [13] | Kd [14] | Kd [15] |
| --- | --- | --- | --- | --- | --- | --- | --- | --- | --- | --- | --- | --- | --- | --- | --- |
| CC[C@@](C)(Nc1ccnc(-c2c[nH]c3ncccc23)n1)C(=O)NCC(F)(F)F [DECERNOTINIB] | > 30 µM (inactive) | > 30 µM (inactive) | > 30 µM (inactive) | > 30 µM (inactive) | > 30 µM (inactive) | 3.23 µM (active) | > 30 µM (inactive) | > 30 µM (inactive) | > 30 µM (inactive) | > 30 µM (inactive) | > 30 µM (inactive) | > 30 µM (inactive) | > 30 µM (inactive) | > 30 µM (inactive) | > 30 µM (inactive) |
| C=CCn1c(=O)c2cnc(Nc3ccc(N4CCN(C)CC4)cc3)nc2n1-c1cccc(C(C)(C)O)n1 [ADAVOSERTIB] | > 30 µM (inactive) | > 30 µM (inactive) | > 30 µM (inactive) | > 30 µM (inactive) | > 30 µM (inactive) | 0.412 µM (active) | > 30 µM (inactive) | > 30 µM (inactive) | > 30 µM (inactive) | > 30 µM (inactive) | > 30 µM (inactive) | > 30 µM (inactive) | > 30 µM (inactive) | > 30 µM (inactive) | > 30 µM (inactive) |
| Cc1c(Cn2c(C)nc3c(C(=O)O)cc(N4CCOCC4)cc32)cccc1C(F)(F)F [GSK-2636771] | > 30 µM (inactive) | > 30 µM (inactive) | > 30 µM (inactive) | > 30 µM (inactive) | > 30 µM (inactive) | > 30 µM (inactive) | > 30 µM (inactive) | > 30 µM (inactive) | > 30 µM (inactive) | > 30 µM (inactive) | > 30 µM (inactive) | > 30 µM (inactive) | > 30 µM (inactive) | > 30 µM (inactive) | > 30 µM (inactive) |
| Cn1cc(-c2[nH]c3cc(NC(=O)[C@H](N)C4CCCCC4)cc4c3c2C=NNC4=O)cn1 | > 30 µM (inactive) | > 30 µM (inactive) | > 30 µM (inactive) | > 30 µM (inactive) | > 30 µM (inactive) | 14.8 µM (active) | > 30 µM (inactive) | > 30 µM (inactive) | > 30 µM (inactive) | > 30 µM (inactive) | > 30 µM (inactive) | > 30 µM (inactive) | > 30 µM (inactive) | 0.146 µM (active) | 0.251 µM |
| COCCN1CCN(Cc2ccc(-c3n[nH]c4c3C(=O)c3c(NC(=O)NN5CCOCC5)cccc3-4)cc2)CC1 [RGB-286638] | > 30 µM (inactive) | 0.153 µM | 0.947 µM (active) | 1.01 µM (active) | 0.002 µM | 0.008 µM (active) | > 30 µM (inactive) | > 30 µM (inactive) | > 30 µM (inactive) | 0.011 µM | > 30 µM (inactive) | > 30 µM (inactive) | > 30 µM (inactive) | 0.08 µM (active) | > 30 µM (inactive) |

The next lines start with the values.

| Kd [1] | Kd [2] | Kd [3] | Kd [4] | Kd [5] | Kd [6] | Kd [7] | Kd [8] | Kd [9] | Kd [10] | Kd [11] | Kd [12] | Kd [13] | Kd [14] | Kd [15] | SMILES |
| --- | --- | --- | --- | --- | --- | --- | --- | --- | --- | --- | --- | --- | --- | --- | --- |
| > 30 µM (inactive) | > 30 µM (inactive) | > 30 µM (inactive) | > 30 µM (inactive) | > 30 µM (inactive) | > 30 µM (inactive) | > 30 µM (inactive) | > 30 µM (inactive) | > 30 µM (inactive) | > 30 µM (inactive) | > 30 µM (inactive) | > 30 µM (inactive) | > 30 µM (inactive) | > 30 µM (inactive) | > 30 µM (inactive) | CC(C)(O)CC(=O)NCCn1ccc2ncnc(Nc3ccc(Oc4cccc(C(F)(F)F)c4)c(Cl)c3)c21 [TAK-285] |
| > 30 µM (inactive) | > 30 µM (inactive) | > 30 µM (inactive) | > 30 µM (inactive) | > 30 µM (inactive) | > 30 µM (inactive) | > 30 µM (inactive) | > 30 µM (inactive) | > 30 µM (inactive) | > 30 µM (inactive) | > 30 µM (inactive) | > 30 µM (inactive) | > 30 µM (inactive) | > 30 µM (inactive) | > 30 µM (inactive) | CNC(=O)c1cccc(-c2ccc3c(N4CCOC[C@@H]4C)nc(N4CCOC[C@@H]4C)nc3n2)c1 [VISTUSERTIB] |
| > 30 µM (inactive) | > 30 µM (inactive) | > 30 µM (inactive) | > 30 µM (inactive) | > 30 µM (inactive) | 0.584 µM (active) | > 30 µM (inactive) | > 30 µM (inactive) | > 30 µM (inactive) | 3.24 µM (active) | > 30 µM (inactive) | > 30 µM (inactive) | > 30 µM (inactive) | > 30 µM (inactive) | 2.34 µM (active) | c1cc(OCCN2CCCCC2)cc(-c2n[nH]c3ccc(-c4nc[nH]n4)cc23)c1 [CC-401] |
| > 30 µM (inactive) | > 30 µM (inactive) | > 30 µM (inactive) | > 30 µM (inactive) | > 30 µM (inactive) | > 30 µM (inactive) | > 30 µM (inactive) | > 30 µM (inactive) | > 30 µM (inactive) | > 30 µM (inactive) | > 30 µM (inactive) | > 30 µM (inactive) | > 30 µM (inactive) | > 30 µM (inactive) | > 30 µM (inactive) | COc1cc(Nc2ncc(F)c(Nc3ccc4c(n3)N(COP(=O)(O)O)C(=O)C(C)(C)O4)n2)cc(OC)c1OC [FOSTAMATINIB] |
| > 30 µM (inactive) | > 30 µM (inactive) | > 30 µM (inactive) | > 30 µM (inactive) | > 30 µM (inactive) | > 30 µM (inactive) | > 30 µM (inactive) | > 30 µM (inactive) | > 30 µM (inactive) | > 30 µM (inactive) | > 30 µM (inactive) | > 30 µM (inactive) | > 30 µM (inactive) | > 30 µM (inactive) | > 30 µM (inactive) | COc1ccc2c(OCc3nnc4ccc(-c5ccccc5)nn34)ccnc2c1 [AMG-208] |
| > 30 µM (inactive) | > 30 µM (inactive) | > 30 µM (inactive) | > 30 µM (inactive) | 0.651 µM (active) | > 30 µM (inactive) | > 30 µM (inactive) | > 30 µM (inactive) | > 30 µM (inactive) | > 30 µM (inactive) | > 30 µM (inactive) | > 30 µM (inactive) | > 30 µM (inactive) | > 30 µM (inactive) | > 30 µM (inactive) | C=CC(=O)Nc1cccc(Nc2nc(Nc3ccc(N4CCN(C(C)=O)CC4)cc3OC)ncc2C(F)(F)F)c1 [ROCILETINIB] |
